The test system of data set [1] is Botryotinia fuckeliana (Botrytis cinerea). The data set is described as follows: Botryotinia fuckeliana (Botrytis cinerea) / liquid culture (gray mould). Type of data set: cell-based. The conditions noted are these: inhibition of growth determined photometrically 3-4 days after application, compared to untreated control. The protocol: Botryotinia fuckeliana (Botrytis cinerea)/Liquid Culture (Gray Mould) Conidia of the fungus from cryogenic storage are directly mixed into nutrient broth (Vogels broth). After placing a (DMSO) solution of test compound into a microtiter plate (96-well format), the nutrient broth containing the fungal spores is added. The test plates are incubated at 24° C. and the inhibition of growth is determined photometrically 3-4 days after application.

The test system of data set [2] is Monographella nivalis (Microdochium nivale). The data set can be described thus: Monographella nivalis (Microdochium nivale) / liquid culture (foot rot cereals). Format: cell-based. The conditions noted are these: inhibition of growth determined photometrically 4-5 days after application, compared to untreated control.
A further data set concerns Fusarium culmorum. The data set is described as follows: microbe, parasite or virus in culture. Format: cell-based. The conditions noted are these: read-out: control of Fusarium culmorum.
The subject of data set [3] is Mycosphaerella graminicola (Septoria tritici). The data set can be described thus: Mycosphaerella graminicola (Septoria tritici) / liquid culture (Septoria blotch). Type of data set: cell-based. The conditions noted are these: Zymoseptoria tritici, inhibition of growth determined photometrically 4-5 days after application, compared to untreated control.

Usually melting point stands for the temperature of the solid-liquid transition.

Molecules are shown by their SMILES. A value given as a limit tells only on which side of the number the result lay.

For the compound `CC1(C)CC(Cc2ccccn2)N=C(c2cnc3c(F)c(F)ccc3c2)S1` (stereo not drawn) [E.01, 2-(7,8-difluoro-3-quinolyl)-6,6-dimethyl-4-(2-pyridylmethyl)-4,5-dihydro-1,3-thiazine], the inhibition of growth at 20 ppm (in data set [1]; in data set [2]; with Fusarium culmorum) was at least 80% in each case.

Regarding `CC1(C)CC(Cc2cccc(F)n2)N=C(c2cnc3c(F)c(F)ccc3c2)S1` (stereo not drawn) [E.02, 2-(7,8-difluoro-3-quinolyl)-4-[(6-fluoro-2-pyridyl)methyl]-6,6-dimethyl-4,5-dihydro-1,3-thiazine], the inhibition of growth at 20 ppm (in data set [1]; in data set [2]; in the data set on Fusarium culmorum) was at least 80% each time. This compound gave an inhibition of growth at 6 ppm in data set [3] of at least 80%.

`CC1(C)CC(Cc2ccccn2)N=C(c2cnc3c(F)c(F)ccc3c2)O1` (stereo not drawn) [E.03, 2-(7,8-difluoro-3-quinolyl)-6,6-dimethyl-4-(2-pyridylmethyl)-4,5-dihydro-1,3-oxazine] showed a melting point of 120 to 123 °C. Also, in data set [1], the inhibition of growth at 20 ppm was at least 80%. The inhibition of growth at 20 ppm in data set [2] is at least 80%.

For the compound `CC1(C)CC(Cc2cccc(F)n2)N=C(c2cnc3c(F)c(F)ccc3c2)O1` (stereo not drawn) [E.04, 2-(7,8-difluoro-3-quinolyl)-4-[(6-fluoro-2-pyridyl)methyl]-6,6-dimethyl-4,5-dihydro-1,3-oxazine], the melting point lay within 129 to 131 °C. In addition, in data set [1], the inhibition of growth at 20 ppm was at least 80%. In data set [2], this compound gave an inhibition of growth at 20 ppm of at least 80%. In addition, in the data set on Fusarium culmorum, the inhibition of growth at 20 ppm is at least 80%.

Take `CC1(C)CC(Cc2cnccn2)N=C(c2cnc3c(F)c(F)ccc3c2)S1` (stereo not drawn) [E.05, 2-(7,8-difluoro-3-quinolyl)-6,6-dimethyl-4-(pyrazin-2-ylmethyl)-4,5-dihydro-1,3-thiazine]: the inhibition of growth at 20 ppm in data set [1] and in data set [2] was at least 80% each time.

Consider `CC1(C)CC(Cc2cccnc2)N=C(c2cnc3c(F)c(F)ccc3c2)S1` (stereo not drawn) [E.06, 2-(7,8-difluoro-3-quinolyl)-6,6-dimethyl-4-(3-pyridylmethyl)-4,5-dihydro-1,3-thiazine], for which the inhibition of growth at 20 ppm (in data set [1]; in data set [2]; in the data set on Fusarium culmorum) was at least 80% each time.

For `CC1(C)CC(Cc2ccsc2)N=C(c2cnc3c(F)c(F)ccc3c2)S1` (stereo not drawn) [E.07, 2-(7,8-difluoro-3-quinoyl)-6,6-dimethyl-4-(3-thienylmethyl)-4,5-dihydro-1,3-thiazine], the inhibition of growth at 20 ppm (in data set [1]; in data set [2]; in the data set on Fusarium culmorum) was at least 80% in each case.

With `CC1(C)CC(Cc2ccc(Cl)nc2)N=C(c2cnc3c(F)c(F)ccc3c2)O1` (stereo not drawn) [E.09, 4-[(6-chloro-3-pyridyl)methyl]-2-(7,8-difluoro-3-quinolyl)-6,6-dimethyl-4,6-dihydro-1,3-oxazine], the inhibition of growth at 20 ppm in data set [1] and in data set [2] was at least 80% in each case. The compound further showed an inhibition of growth at 6 ppm in data set [3] of at least 80%.

`CC1(C)CC(Cn2cc(Cl)cn2)N=C(c2cnc3c(F)c(F)ccc3c2)S1` (stereo not drawn) [E.10, 4-[(4-chloropyrazol-1-yl)methyl]-2-(7,8-difluoro-3-quinolyl)-6,6-dimethyl-4,5-dihydro-1,3-thiazine]: the inhibition of growth at 20 ppm in data set [1] and in data set [2] was at least 80% in each case. The same compound yielded an inhibition of growth at 6 ppm in data set [3] of at least 80%.

With `CC1(C)CC(Cn2ccc(Cl)n2)N=C(c2cnc3c(F)c(F)ccc3c2)S1` (stereo not drawn) [E.11, 4-[(3-chloropyrazol-1-yl)methyl]-2-(7,8-difluoro-3-quinolyl)-6,6-dimethyl-4,5-dihydro-1,3-thiazine], the inhibition of growth at 20 ppm in data set [1] and in data set [2] was at least 80% in each case. Also, the inhibition of growth at 6 ppm in data set [3] was at least 80%.

`CC1(C)CC(Cn2ccc(C(F)F)n2)N=C(c2cnc3c(F)c(F)ccc3c2)S1` (stereo not drawn) [E.12, 4-[[3-(difluoromethyl)pyrazol-1-yl]methyl]-2-(7,8-difluoro-3-quinolyl)-6,6-dimethyl-4,5-dihydro-1,3-thiazine]: the inhibition of growth at 20 ppm in data set [1] and in data set [2] was at least 80% each time. Further, in data set [3], the inhibition of growth at 6 ppm is at least 80%.

On to `CC1(C)CC(Cc2cscn2)N=C(c2cnc3c(F)c(F)ccc3c2)O1` (stereo not drawn) [E.13, 2-(7,8-difluoro-3-quinolyl)-6,6-dimethyl-4-(thiazol-4-ylmethyl)-4,5-dihydro-1,3-oxazine], for which the inhibition of growth at 20 ppm in data set [1] and in data set [2] was at least 80% throughout. Moreover, the inhibition of growth at 6 ppm in data set [3] was at least 80%.

Consider `CC1(C)CC(Cc2nccs2)N=C(c2cnc3c(F)c(F)ccc3c2)S1` (stereo not drawn) [E.14, 2-(7,8-difluoro-3-quinolyl)-6,6-dimethyl-4-(thiazol-2-ylmethyl)-4,5-dihydro-1,3-thiazine], for which the inhibition of growth at 20 ppm in data set [1] and in data set [2] was at least 80% throughout. In addition, the inhibition of growth at 6 ppm in data set [3] was at least 80%.

For the compound `CC1(C)CC(Cc2nccs2)N=C(c2cnc3c(F)c(F)ccc3c2)O1` (stereo not drawn) [E.15, 2-(7,8-difluoro-3-quinolyl)-6,6-dimethyl-4-(thiazol-2-ylmethyl)-4,5-dihydro-1,3-oxazine], the melting point was 105 to 113 °C. The inhibition of growth at 20 ppm in data set [1] is at least 80%. In data set [2], this compound had an inhibition of growth at 20 ppm of at least 80%. The compound further returned an inhibition of growth at 6 ppm in data set [3] of at least 80%.

As to `CC1(C)CC(Cc2cncs2)N=C(c2cnc3c(F)c(F)ccc3c2)S1` (stereo not drawn) [E.16, 2-(7,8-difluoro-3-quinolyl)-6,6-dimethyl-4-(thiazol-5-ylmethyl)-4,5-dihydro-1,3-thiazine], the inhibition of growth at 20 ppm in data set [1] and in data set [2] was at least 80% each time. The compound also displayed an inhibition of growth at 6 ppm in data set [3] of at least 80%.

For `CC1(C)CC(Cn2cc(F)cn2)N=C(c2cnc3c(F)c(F)ccc3c2)S1` (stereo not drawn) [E.17, 2-(7,8-difluoro-3-quinolyl)-4-[(4-fluoropyrazol-1-yl)methyl]-6,6-dimethyl-4,5-dihydro-1,3-thiazine], the inhibition of growth at 20 ppm in data set [1] and in data set [2] was at least 80% each time.

As for `CC1(C)CC(Cn2cc(C(F)(F)F)cn2)N=C(c2cnc3c(F)c(F)ccc3c2)S1` (stereo not drawn) [E.18, 2-(7,8-difluoro-3-quinolyl)-6,6-dimethyl-4-[[4-(trifluoromethyl)pyrazol-1-yl]methyl]-4,5-dihydro-1,3-thiazine], the inhibition of growth at 20 ppm in data set [2] was at least 80%.

As for `CC1(C)CC(Cc2cncs2)N=C(c2cnc3c(F)c(F)ccc3c2)O1` (stereo not drawn) [E.19, 2-(7,8-difluoro-3-quinolyl)-6,6-dimethyl-4-(thiazol-5-ylmethyl)-4,5-dihydro-1,3-oxazine], the melting point was 122 to 127 °C. The compound also yielded an inhibition of growth at 20 ppm in data set [1] of at least 80%. For the same compound, the inhibition of growth at 20 ppm in data set [2] is at least 80%.

The compound `CC1(C)CC(Cc2cccnc2)N=C(c2cnc3c(F)cccc3c2)S1` (stereo not drawn) [E.20, 2-(8-fluoro-3-quinolyl)-6,6-dimethyl-4-(3-pyridylmethyl)-4,5-dihydro-1,3-thiazine] yielded an inhibition of growth at 6 ppm in data set [3] of at least 80%.

On to `CC1(C)CC(Cc2cccnc2)N=C(c2cnc3c(F)cccc3c2)O1` (stereo not drawn) [E.22, 2-(8-fluoro-3-quinolyl)-6,6-dimethyl-4-(3-pyridylmethyl)-4,5-dihydro-1,3-oxazine], for which the inhibition of growth at 20 ppm in data set [1] and in data set [2] was at least 80% in each case.

With `CC1(C)CC(Cc2ccsc2)N=C(c2cnc3c(F)cccc3c2)S1` (stereo not drawn) [E.23, 2-(8-fluoro-3-quinolyl)-6,6-dimethyl-4-(3-thienylmethyl)-4,5-dihydro-1,3-thiazine], the inhibition of growth at 20 ppm (in data set [1]; in data set [2]; in the data set on Fusarium culmorum) was at least 80% in each case.

For the compound `CC1(C)CC(Cc2ccc(F)nc2)N=C(c2cnc3c(F)c(F)ccc3c2)S1` (stereo not drawn) [E.24, 2-(7,8-difluoro-3-quinolyl)-4-[(6-fluoro-3-pyridyl)methyl]-6,6-dimethyl-4,5-dihydro-1,3-thiazine], the inhibition of growth at 20 ppm (in data set [1]; in data set [2]; in the data set with Fusarium culmorum) was at least 80% each time.

Turning to `CC1(C)CC(Cc2ccsc2)N=C(c2cnc3c(F)c(F)ccc3c2)[S+]1[O-]` (stereo not drawn) [E.25, 2-(7,8-difluoro-3-quinolyl)-6,6-dimethyl-4-(3-thienylmethyl)-4,5-dihydro-1,3-thiazine 1-oxide], the inhibition of growth at 20 ppm (in data set [2]; with Fusarium culmorum) was at least 80% in each case.

Turning to `CC1(C)CC(Cc2ccncc2)N=C(c2cnc3c(F)c(F)ccc3c2)S1` (stereo not drawn) [E.26, 2-(7,8-difluoro-3-quinolyl)-6,6-dimethyl-4-(4-pyridylmethyl)-4,5-dihydro-1,3-thiazine], the inhibition of growth at 20 ppm in data set [1] and in data set [2] was at least 80% each time.

Source of the values: patent US20230142565A1, “MICROBIOCIDAL QUINOLINE DIHYDRO-(THIAZINE)OXAZINE DERIVATIVES” (SYNGENTA CROP PROTECTION AG, priority 2020, published 2023).
